Literature values in patent publication US7560120B2, “Vehicles for delivery of biologically active substances” (University of Tennessee Research Foundation, priority 2002, dated 2009).
Counter-ions that a name gives are not always drawn. Like-named read-outs stand apart in the source and are kept apart here.

Experiments:
Rat [1] = details: oral
Rat [2] = details: in vivo, sc
[3] = not given; remark: listed apart in the source

SMILES | Viscosity (cps) at 25° C. [cps] | LD50 (Rat [1]) [mg/kg] | LD50 (Rat [2]) [mg/kg] | Water Solubility at 25° C. (g/100 ml) [3] [g/100 ml]
CCCCCCOC(=O)CC(CC(=O)OCCCCCC)(OC(=O)CCC)C(=O)OCCCCCC [B-6, Butyryltri-n-hexyl Citrate] | 28 | 2000 | – | –
CCOC(=O)CC(O)(CC(=O)OCC)C(=O)OCC [TEC, triethyl citrate] | 35 | – | 6600 | –
CCCCOC(=O)CC(CC(=O)OCCCC)(OC(C)=O)C(=O)OCCCC [ATBC, Acetyl Tributyl Citrate] | 33 | >25000 | – | <0.1
CCOC(=O)CC(CC(=O)OCC)(OC(C)=O)C(=O)OCC [ATEC, acetyl triethyl citrate] | 54 | 7000 | – | –
CCCCCCOC(=O)CC(CC(=O)OCCCCCC)(OC(C)=O)C(=O)OCCCCCC [A-6, Acetyltri-n-hexyl Citrate] | 36 | 20000 | – | –
CCCCOC(=O)CC(O)(CC(=O)OCCCC)C(=O)OCCCC [TBC, Tributyl Citrate] | 32 | >30000 | – | <0.1
